Converted amounts (≈) assume the structure as drawn. “And” between values parts separate entries of the source, which are not always exact repeats. Identical values can stand only once. Like-named read-outs stand apart in the source and are kept apart here.
Assays:
carboxylesterase (CaE) = assay: CaE assay in homogenate of surviving treated larvae; type: biochemical, Culex pipiens; settings: larvae 24 h after treatment with LC50, untreated 3.31
Protocol: CaE activity was determined according to Van Asperen’s method, which used α-naphthyl acetate as a substrate. The assay mixture contained 50 μL of homogenate enzyme, 2.1 mL of 50 mM sodium phosphate buffer (pH 7.4), and 25 μL of 5 mM α-naphthyl acetate solution. The mixture incubation was done at 37 °C for 15 min. […] The absorption was measured at 555 nm. The enzyme activity was expressed as OD555 min^−1 mg protein^−1.

[1] = test system: freshwater green alga Raphidocelis subcapitata; assay: whole plant or invertebrate; settings: for EC50: Raphidocelis subcapitata, 96 h, read-out: 96 h EC50 (95% confidence limits); for NOEC: no observed effect concentration on algal growth rate, NOEC = EC/10
Protocol: The freshwater green alga Raphidocelis subcapitata was obtained from the Faculty of Science; Mansoura University, Egypt. The stock culture was maintained in 250-mL borosilicate Erlenmeyer flasks containing culture medium at 24 ± 2 °C, under a continuous white fluorescent light of 3000–4000 lux, and manually shaken twice a day. The axenic culture was maintained for the provision of a continuous supply of “healthy” cells for the tests in a standard algal assay medium (AAM) as described in Miller et al..
An acute algal growth inhibition test was conducted using different concentrations of each insecticide in sterile AAM in a final volume of 50 mL. Tested concentrations of a pesticide were prepared from stock solutions on an arithmetic progression covering an expected range of toxicity from 0 to 90%. Stock solutions of technical insecticides were prepared in 1% DMSO and a corresponding control was included. Stock solutions of the EC and NE were prepared. Algal suspensions were exposed to different concentrations (0.0005–500 mg/L) prepared in the same medium of algae culture. All assays were conducted in triplicate. An inoculum of the exponentially-growing culture of R. subcapitata (harvested from 4–7 days stock culture) was prepared no more than 2–3 h before the beginning of the test. Initial cell density for the growth inhibition test was 10,000 cells/ml in both test and control flasks. Zero-time begins at inoculation of all flasks with the algal cells followed by incubation for 96 h in a temperature-controlled (25 °C) orbital shaker set at 100 rpm under continuous illumination via white fluorescent lamps. After 96 h, algal growth in terms of viable cell concentration was examined in a Neubauer hemocytometer using a phase-contrast microscope. Growth rate inhibition of the alga was used as the endpoint in this assessment. The percent inhibition values were calculated after 96 h, and the median effective concentration (EC50) values were calculated from the probit analysis with 95% confidence limits. The no observed effect concentration (NOEC) after algal exposure to each tested insecticide was calculated by the formula: NOEC = EC/10 [31]. Furthermore, the hazard statement of each tested insecticide was estimated according to UNECE GHS (2019).
Statistical analysis was performed using the IBM SPSS software version 25.0 (SPSS, Chicago, IL, USA). Mortality percentages were calculated for each treatment and corrected using Abbott’s equation [34]. Means and standard error (SE) were obtained from three independent replications performed for each treatment. The log dose-response (LdP) lines were used in the determination of the LC50 values for the mosquito’s bioassay and EC50 values for the algal bioassay according to the probit analysis. The least-square regression analysis was used to determine the 95% confidence limits. Analysis of variance (ANOVA) of the biochemical data was conducted and means property values were separated (p ≤ 0.05) with Student-Newman-Keuls (SNK).

[2] = test system: adenosine triphosphatase (ATPase); assay: ATPase assay in homogenate of surviving treated larvae; type: biochemical, Culex pipiens; settings: larvae 24 h after treatment with LC50, untreated 1.40
Protocol: ATPase activity was performed according to Koch’s method. The reaction mixture, which contained 400 mM Na^+, 20 mM K^+, 5 mM Mg ^+, and 5 mM ATP, was prepared, and 200 μL of the crude enzyme was added to this mixture. Then, the volume was completed to 950 μL with Tris-HCl buffer (pH 7.4). After 10 min incubation at 37 °C, the reaction was stopped with 200 μL of TCA. A fresh color reagent (5 g ferrous sulfate in 10 mL ammonium molybdate solution prepared in 10 N sulfuric acid) was added to the reaction mixture. The absorbance of the developed blue color was measured at 740 nm, and the enzyme activity was calculated as OD740 min^−1 mg protein^−1.

[3] = test system: glutathione-S-transferase (GST); settings: larvae 24 h after treatment with LC50, untreated 2.70
Protocol: The homogenate was centrifuged at 5000 rpm for 20 min at 4°C. The supernatant was used immediately for enzymatic assay or stored at – 20 °C. Total protein was determined according to Lowry et al.’s [23] method, and the concentrations were calculated by comparing with the standard curve of BSA.
GST assay was performed using reduced glutathione (2.5 mM) by Saint-Deniset et al. [26]. The assay mixture contained 100 μL of 1.5 mM CDNB, 200 μL of reduced glutathione, and 1.5 ml of pH 7.4 phosphate buffer. A total of 200 μL of the enzyme was added to the above mixture, shaken gently, and incubated for 15 min at 37 °C. The absorbance was recorded at 340 nm using a UV/Visible spectrophotometer (Alpha-1502. Laxco Inc, USA). One unit of enzyme activity attributed to the quantity of conjugated enzyme with 1 mmol of GSH per min. The enzyme activity was expressed as OD340 min^−1 mg protein^−1.

Culex pipiens larvae = assay: Toxicity assay against C. pipiens larvae (WHO larval bioassay); type: in vivo; settings: for LC50: Culex pipiens
From the text: A susceptible strain of C. pipiens culture was obtained from Research Institute of Medical Entomology, Ministry of Health, Dokki, Giza, Egypt, and reared in High Institute of Public Health insectary, Alexandria University, Alexandria, Egypt. The Larvae were fed on biscuits [containing wheat flour and yeast powder mixed with milk powder (10: 1: 1, w/w, respectively)] until pupation in shallow trays containing 2–3 L of de-chlorinated water. Male adults were fed on 30% sucrose solution, and females were fed on pigeon blood four times a week in adult cages. […] The egg rafts were transferred from adult cages to white trays containing de-chlorinated water for egg hatch.
According to the World Health Organization, the larval bioassay was performed to compare the effect of nanoemulsions of selected pyrethroids with their active ingredient and commercial EC formulations on the C. pipiens larva recommendations. Third instar larvae were used in the evaluation by a direct contact method. The three forms of tested insecticides (technical, commercial EC formulation, and nanoemulsion) were tested to obtain the LC50 values. Technical pyrethroids were dissolved in DMSO and mixed with Tween-80 (0.05%), while the EC and nanoemulsions were dissolved in distilled water. Different concentrations ranging from 0.5 to 500 μg/L were tested in three replicates. Twenty C. pipiens larvae were put into plastic cups containing 100 mL of de-chlorinated water. The larvae were treated separately with Tween 80 or DMSO, and larvae without any treatment were maintained as control. The larvae’s morbidity and mortality were verified and recorded based on the larvae’s uncoordinated movement after investigating the cervical region with a needle.

[4] = test system: C. tritaeniorhynchus larvae; set-up: method as in PMID 28245893; settings: cited from earlier work
[5] = cited from earlier work

Structure (SMILES) | Specific activity ± SE, CaE (carboxylesterase (CaE)) | EC50 [1] | NOEC [1] | Slope ± SE of the concentration mortality regression line (Culex pipiens larvae; 24 h exposure) | Slope ± SE of the concentration mortality regression line (Culex pipiens larvae; 48 h exposure) | LC50 (Culex pipiens larvae; 24 h) | LC50 (Culex pipiens larvae; 48 h) | further results
CC1(C)[C@H](C(=O)O[C@H](C#N)c2cccc(Oc3ccccc3)c2)[C@@H]1/C=C(\Cl)C(F)(F)F (racemic) [Lambda-cyhalothrin, lambda-cyhalothrin] | 1.51 ± 0.09 OD mg protein^−1 min | 33.9 mg/L (≈ 75.3 µM) | 3.389 mg/L | 1.47 ± 0.09 | 1.30 ± 0.09 | 0.027 mg/L (≈ 0.06 µM) | 0.018 mg/L (≈ 0.04 µM) | Specific activity ± SE, ATPase ([2]; listed as Lambda-cyhalothrin T): 0.62 OD mg protein^−1 min and 0.62 ± 0.05 OD mg protein^−1 min; Specific activity ± SE, GST ([3]; listed as Lambda-cyhalothrin T): 4.57 OD mg protein^−1 min and 4.57 ± 0.48 OD mg protein^−1 min
CC1(C)C(C=C(Cl)Cl)C1C(=O)OC(C#N)c1cccc(Oc2ccccc2)c1 (stereo not drawn) [Alpha-cypermethrin, alpha-cypermethrin] | 5.06 ± 0.15 OD mg protein^−1 min | 69.3 mg/L (≈ 167 µM) | 6.932 mg/L | 2.47 ± 0.15 |  | 0.043 mg/L (≈ 0.103 µM) | 0.04 mg/L (≈ 0.0961 µM) | Specific activity ± SE, ATPase ([2]; listed as Alpha-cypermethrin T): 0.86 OD mg protein^−1 min and 0.86 ± 0.02 OD mg protein^−1 min; Specific activity ± SE, GST ([3]; listed as Alpha-cypermethrin T): 5.31 OD mg protein^−1 min and 5.31 ± 0.70 OD mg protein^−1 min
CC1(C)[C@H](C(=O)O[C@H](C#N)c2cccc(Oc3ccccc3)c2)[C@@H]1C=C(Br)Br [Deltamethrin, deltamethrin] |  | > 100 mg/L | > 10 mg/L | 2.23 ± 0.13 | 2.12 ± 0.13 |  |  | Specific activity ± SE, CaE (carboxylesterase (CaE); listed as Deltamethrin T): 4.53 OD mg protein^−1 min and 3.44 ± 0.19 OD mg protein^−1 min; Specific activity ± SE, ATPase ([2]; listed as Deltamethrin T): 0.69 OD mg protein^−1 min and 0.69 ± 0.02 OD mg protein^−1 min; Specific activity ± SE, GST [3]: 5.49 ± 0.60 OD mg protein^−1 min; LC50 (Culex pipiens larvae; third instar larvae, 24 h exposure, read-out: LC50): 0.028 mg/L (≈ 0.0554 µM); LC50 (Culex pipiens larvae; third instar larvae, 48 h exposure, read-out: LC50): 0.025 mg/L (≈ 0.0495 µM)
CC1(C)C(C=C(Cl)Cl)C1C(=O)OCc1cccc(Oc2ccccc2)c1 (centres unmarked) [Permethrin, permethrin] | 2.31 ± 0.09 OD mg protein^−1 min | 14.9 mg/L (≈ 38.2 µM) | 1.494 mg/L | 1.36 ± 0.089 | 1.26 ± 0.08 | 0.322 mg/L (≈ 0.823 µM) | 0.225 mg/L (≈ 0.575 µM) | Specific activity ± SE, ATPase ([2]; listed as Permethrin T): 0.64 OD mg protein^−1 min and 0.64 ± 0.00 OD mg protein^−1 min; Specific activity ± SE, GST ([3]; listed as Permethrin T): 6.32 OD mg protein^−1 min and 6.32 ± 0.59 OD mg protein^−1 min; LC50 (Culex pipiens larvae; read-out: LC50 range): 0.127 to 0.322 mg/L (≈ 0.325 to 0.823 µM)
CC1(C)C(C=C(Cl)Cl)C1C(=O)OCc1cccc(Oc2ccccc2)c1 (centres unmarked) [bulk permethrin, permethrin] |  |  |  |  |  |  |  | LC50 [4]: 0.442 mg/L (≈ 1.13 µM)
C[n+]1ccc(-c2cc[n+](C)cc2)cc1 [paraquat] |  |  |  |  |  |  |  | 96 h EC50 [5]: 0.48 mg/L

From PMC8282878, “Enhanced mosquitocidal efficacy of pyrethroid insecticides by nanometric emulsion preparation towards Culex pipiens larvae with biochemical and molecular docking studies” (Journal of the Egyptian Public Health Association, 2021)
